Source: patent US9815787B2, “Sulfonamide derivative or pharmaceutically acceptable acid addition salt thereof” (UNIVERSITY OF TSUKUBA, priority 2013, dated 2017)

Biological target: T1, OX2R (Homo sapiens, UniProt O43614)
T1 construct: expressed in transfected cells; host or cells: CHO (Chinese hamster ovary) cells constitutively expressing the OX2R gene and NFAT-luciferase (CHOOX2R)
T1 sequence (O43614 1-444): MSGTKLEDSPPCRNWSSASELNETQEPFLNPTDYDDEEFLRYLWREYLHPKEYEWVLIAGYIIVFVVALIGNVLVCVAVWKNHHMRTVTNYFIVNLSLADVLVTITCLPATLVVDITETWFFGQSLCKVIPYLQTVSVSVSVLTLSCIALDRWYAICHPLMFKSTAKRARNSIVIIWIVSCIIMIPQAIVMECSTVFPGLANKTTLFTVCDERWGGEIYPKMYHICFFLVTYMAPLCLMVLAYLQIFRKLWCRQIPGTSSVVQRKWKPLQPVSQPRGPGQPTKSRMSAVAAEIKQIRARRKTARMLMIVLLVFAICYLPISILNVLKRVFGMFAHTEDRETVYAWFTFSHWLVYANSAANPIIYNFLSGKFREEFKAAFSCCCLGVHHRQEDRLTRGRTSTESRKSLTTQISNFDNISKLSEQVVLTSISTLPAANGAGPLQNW
Assay: Evaluation of agonist activity against OX2R (CHOOX2R cells, Fura2AM fluorescence, FDSS3000)
Format: cell-based
Summary of the method: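 CHO cells stably expressing human OX2R (and NFAT-luciferase), cultured 48 h in 5% FBS DMEM. Agonist response read as change in Fura2AM fluorescence on compound addition in HEPES buffer. Final compound concentrations 0.1, 1.0 or 10 μM; 1% DMSO.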

Response (0.1 μM (%)) (test compound 0.1 μM; relative to orexin-A as full agonist (100%); CHOOX2R cells)	Response (1.0 μM (%)) (test compound 1.0 μM; relative to orexin-A as full agonist (100%); CHOOX2R cells)	Response (10 μM (%)) (test compound 10 μM; relative to orexin-A as full agonist (100%); CHOOX2R cells)	Response (0.1 μM (%)) (test compound 0.1 μM; CHOOX2R cells; relative to orexin-A as full agonist (100%))	Response (1.0 μM (%)) (test compound 1.0 μM; CHOOX2R cells; relative to orexin-A as full agonist (100%))	Response (10 μM (%)) (test compound 10 μM; CHOOX2R cells; relative to orexin-A as full agonist (100%))	SMILES
<5%	131%	139%				COc1ccccc1C(=O)NCCN(C)c1cccc(NS(=O)(=O)c2cc(-c3cccc(C(=O)N(C)C)c3)ccc2OC)c1 [Example 112, 4′-methoxy-3′-(N-(3-((2-(2-methoxybenzamido)ethyl) (methyl)amino)phenyl)sulfamoyl)-N,N-dimethyl-[1,1′-biphenyl]-3-carboxamide]
			<5%	130%	119%	COc1ccc(-c2cccc(C(=O)N(C)C)c2)cc1S(=O)(=O)Nc1cccc(NCCNC(=O)c2cncc(Cl)c2)c1 [Example 58, 5-chloro-N-(2-((3-(3′-(dimethylcarbamoyl)-4-methoxy-[1,1′-biphenyl]-3-ylsulfonamido)phenyl)amino)ethyl)nicotinamide]
